Results: patent US7537775B2, “Low pH skin care compositions containing dehydroacetic acid” (The Procter & Gamble Company, priority 2005, dated 2009)

Assay: Stability of dehydroacetic acid in aqueous low-pH skin care compositions
Assay type: physicochemical
Details: observation from formulation attempts
Excerpt: Dehydroacetic acid also has proven effective in improving skin texture and appearance, and has the additional benefit of reducing oily skin. See, for example, Biederman et al., U.S. Pat. No. 6,150,403. […] Therefore, a need remains for stable, low-pH skin care compositions to effect delivery of dehydroacetic acid, either alone or in combination with other low-pH skin care actives.
The present invention describes skin care compositions in which dehydroacetic acid is stabilized at a pH of about 4.5 and below. […] To effect stabilization of dehydroacetic acid, the compositions of the present invention include oils that have both an optimal solubility parameter and limited solubility in water. The present invention describes stable skin care compositions made by a procedure that utilizes this combination of properties to stabilize dehydroacetic acid in its active form at a low-pH.
Herein, “stable” and “stability” mean compositions which are substantially unaltered in chemical or physical state. […] Transport and storage conditions may include prolonged exposure to temperatures of from about −50° F. to about 150° F. Stability may be determined either by empirical observation or by appropriate methods of chemical analysis that would be known to one of skill in the art.

CC(=O)C1C(=O)C=C(C)OC1=O (stereo not shown) [dehydroacetic acid, 3-acetyl-6-methyl-2H-pyran-2,4,(3H)-dione]
pH below which dehydroacetic acid begins to exhibit instability: below 7.0
